Structures can show the parent of a compound that is named as a salt.
How the values were obtained:
[1] = system: reserpine induced hypothermia; assay: antagonism of reserpine (5 mg/kg i.p.) induced hypothermia (antireserpine/antidepressant activity) in mice; type: in vivo; conditions: for Antireserpine Activity in Mice, Relative Potency: reserpine 5 mg/kg i.p., Amitriptyline = 1; for antidepressant activity (in words): reserpine hypothermia
Experimental: (§1) The compounds were administered intraperitoneally and activities of the compounds were compared with those of Amitriptyline.

[2] = system: electroshock induced tonic extensor; assay: anticonvulsant activity, antagonism of electroshock induced tonic extensor in mice; type: in vivo; conditions: Mus musculus, ip, dose preventing 50% of response, read-out: Anti-Convulsant Activity ED50
Experimental: as §1

mice = conditions: i.p.
[3] = system: neurological deficit as measured by traction test; conditions: mouse, in vivo, ip
Experimental: as §1

tremorine induced tremor [4] = conditions: mouse, in vivo, ip
Experimental: as §1

in vivo = conditions: mouse, ip
tremorine induced tremor [5] = assay: central anticholinergic effect, tremorine induced tremor in mice; conditions: Mus musculus, ip, read-out: Antitremorine Effect ED50
Experimental: as §1

[6] = system: spontaneous motor activity; assay: CNS depressant activity, spontaneous motor activity measured by ANIMEX apparatus in mice; conditions: Mus musculus, ip, read-out: Spontaneous Motor Activity Depression ED50
Experimental: as §1

[7] = system: neurological deficit as measured by traction test; assay: CNS depressant activity, neurological deficit by traction test (muscle relaxant action) in mice; conditions: Mus musculus, ip, read-out: Muscle Relaxant Action ED50
Experimental: as §1

Structure (SMILES) | Antireserpine Activity in Mice, Relative Potency [1] | antidepressant activity (in words) [1] | LD50 (in vivo) [mg/kg] | further results
c1ccc(Oc2ccccc2OCCCCN2CCOCC2)cc1 [2-(4-morpholinobutoxy)diphenyl ether hydrochloride, reference compound] | 0.21 | – | – | –
CNCCCOc1ccccc1Oc1ccccc1 [2-(3-methylaminopropoxy)diphenyl ether hydrochloride, reference compound] | 0.28 | – | – | –
CNCCCCOc1ccccc1Oc1ccccc1 [2-(4-methylaminobutoxy)diphenyl ether hydrochloride] | 1.10 | best activity of all compounds of the present invention tested | 100 | antireserpine activity compared with Amitriptyline (in words) ([1]; versus Amitriptyline): comparable to that of Amitriptyline; ED50 [2]: 32 mg/kg; toxicity (in words) (mice): low toxicity; CNS depressant action (in words) [3]: weak; anticholinergic action (in words) (tremorine induced tremor [4]): weak; ED50 (tremorine induced tremor [5]): 30 mg/kg; ED50 [6]: 60 mg/kg; ED50 [7]: 60 mg/kg
CN(C)CCCCOc1ccccc1Oc1ccccc1 [2-(4-dimethylaminobutoxy)diphenyl ether hydrochloride] | 0.58 | best activity of all compounds of the present invention tested | 92 | –
CN(C)CCC=C1c2ccccc2CCc2ccccc21 [Amitriptyline, reference compound] | – | – | – | LD50 (mice; Litchfield-Wilcoxon method): 65 mg/kg i.p.
CN(C)CCCOc1ccccc1Oc1ccccc1 [2-(3-dimethylaminopropoxy)diphenyl ether hydrochloride, reference compound] | 0.14 | – | – | –
NCCCCOc1ccccc1Oc1ccccc1 [2-(4-aminobutoxy)diphenyl ether hydrochloride] | 0.28 | – | – | –
CNCCCCCOc1ccccc1Oc1ccccc1 [2-(5-methylaminopentyloxy)diphenyl ether hydrochloride] | 0.57 | best activity of all compounds of the present invention tested | 85 | –
CN(C)CCCCCOc1ccccc1Oc1ccccc1 [2-(5-dimethylaminopentyloxy)diphenyl ether hydrochloride] | 0.24 | – | – | –

Reference: patent US4061776A, “Pharmaceutically active 2-omega-aminoalkoxydiphenyl ethers” (Mitsubishi Chemical Industries Ltd., priority 1976, dated 1977)
